Test results from PMC10017027, “Design and Synthesis of Novel HIV-1 NNRTIs with Bicyclic Cores and with Improved Physicochemical Properties” (Journal of Medicinal Chemistry, 2023).
≈ marks a conversion by molar mass, not a printed value. Like-named read-outs stand apart in the source and are kept apart here.

Columns and labels:
HIV-1 (IIIB strain) = assay: MT-4 antiviral cytopathic effect assay, HIV-1 IIIB; format: cell-based; conditions: for EC50: HIV-1 IIIB, WT, read-out: EC50 MT4
Experimental: (§1) The prepared compounds were tested for their anti-HIV-1 activity (Table 1). A viral cytopathic effect assay in MT-4 cells with HIV-1 IIIB virus was used to determine compound potency (EC50, 50% cell viability) in protecting virus induced cell killing. Compound cytotoxicity was assessed in MT-4 cells in the absence of virus (CC50, 50% cytotoxicity).
(§2) Compounds were tested in a high-throughput 384-well assay format for their ability to inhibit the virus replication-induced cytopathic effect in MT-4 cell cultures acutely infected with HIV-1 (IIIB strain), HXB2, HXB2-K103N, and HXB2-Y181C. Compounds were serially diluted (1:3) in DMSO on 384-well polypropylene plates and further diluted 200-fold into complete RPMI media (10% FBS, 1% P/S) using Biotek Micro Flow and an Agilent ECHO acoustic dispenser. Each plate contained up to eight test compounds, with negative (no drug control) and 5 μM AZT positive controls. MT-4 cells were further diluted in complete RPMI media and added to each plate using a Micro-Flo dispenser. After five days of incubation in a humidified and temperature-controlled incubator (37 °C), Cell Titer Glo (Promega) was added to the assay plates to quantify the amount of […]. EC50 and CC50 values were defined as the compound concentration that causes a 50% decrease in luminescence signal and were calculated using a sigmoidal dose-response model to generate curve fits.

in vitro = format: cell-based; conditions: human
Experimental: as §1, with “cytotoxicity). […] ETV contains bromo and amino substitutions on the DAPY core. […] Likely, with the smaller cyano arm I in 1, 3, and 5, the cores could be further elaborated to optimize the compound position in the pocket and to improve potency.” for “cytotoxicity).”
as §2

HIV-1 HXB2 K103N variant = assay: MT-4 antiviral cytopathic effect assay, HXB2-K103N; format: cell-based; conditions: for EC50: Human immunodeficiency virus 1, HXB2, read-out: EC50 K103N
Experimental: as §1, with “cytotoxicity). […] ETV contains bromo and amino substitutions on the DAPY core. […] Likely, with the smaller cyano arm I in 1, 3, and 5, the cores could be further elaborated to optimize the compound position in the pocket and to improve potency.” for “cytotoxicity).”
as §2

HIV-1 HXB2 Y181C variant = assay: MT-4 antiviral cytopathic effect assay, HXB2-Y181C; format: cell-based; conditions: for EC50: Human immunodeficiency virus 1, HXB2, read-out: EC50 Y181C
Experimental: as §1, with “cytotoxicity). […] ETV contains bromo and amino substitutions on the DAPY core. […] Likely, with the smaller cyano arm I in 1, 3, and 5, the cores could be further elaborated to optimize the compound position in the pocket and to improve potency.” for “cytotoxicity).”
as §2

[1] = Solubility assessment, shake-flask method; format: physicochemical; conditions: for solubility: shake-flask; for HCl sol / PBS sol: supplement CSV
Experimental: Compound solubility was measured at Analiza (Cleveland, OH) by the standard shake-flask method at pH 1.2 and 7.4 and quantitated by HPLC-UV.

HIV-1 HXB2 = assay: MT-4 antiviral cytopathic effect assay, HXB2 wild-type virus; format: cell-based; conditions: Human immunodeficiency virus 1, MT4; HIV-1 HXB2 wild-type, MT-4 cells; read-out: EC50 HXB2
Experimental: as §1, §2

[2] = MDCK permeability assay (A to B); format: in vitro ADME, Canine; conditions: dog, MDCK
From the text: Compounds were further tested in a Madin–Darby Canine Kidney (MDCK) assay to evaluate their potential for oral absorption. […] Additionally, there was no trend for better permeability when comparing arm I versus arm II when matched with the same core. The size of the B ring had the greatest influence on Papp with the trend being five-membered > six-membered > seven-membered rings (Table 1).
cMdr1-KO cells were maintained in Dulbecco’s modified Eagle’s medium (DMEM) with sodium pyruvate and GlutaMax, supplemented with 1% Pen/Strep and 10% fetal bovine serum in an incubator set at 37 °C, 90% humidity, and 5% CO2. MDCKII- cMdr1-KO cells were grown to confluence over 3 days on 96-well PET plates with 1 μm pore size, polyester membrane (Corning 3392). Experiments were run using HBSS donor buffer from Invitrogen containing an additional 10 mM HEPES, 15 mM glucose, and 0.1% BSA adjusted to pH 7.4. The receiver well had HBSS buffer supplemented with 1% BSA, 10 mM HEPES, 15 mM glucose, and the pH was adjusted to 7.4. TEER values were read to test membrane integrity at the beginning of the assay. The experiment was started by the addition of dosing solutions containing test compounds. Samples were taken from the donor compartment at 0/120 min and from the receiver compartment at 120 min. Each compound was tested in two separate replicate wells. All samples were immediately collected in a 72:8:20 MeCN/MeOH:H2O mix to precipitate protein and stabilize the test compounds. Cells were dosed on the apical side to determine forward (A to B) permeability. To test for non-specific binding and compound instability, the total amount of drug was quantified at the end of the experiment and compared to the material present in the original dosing solution as a percentage of recovery. Samples were analyzed by RF-QToF.

[3] = Predicted clearance in human liver microsomes; format: in vitro ADME; conditions: pH 7.4, 1 μM compound, read-out: HLM CLint, pred (converted)
Experimental: Next, microsome stability was profiled in purified human liver microsomes (HLM).
Metabolic stability of compounds was assessed using HLM (Corning cat. 457117).[52] In this assay, 10 nL compounds at a concentration of 1 mM in 100% DMSO are dispensed into 384-well polypropylene plates using the Echo 550 acoustic liquid dispenser (Labcyte). Each plate contains 384 wells with a single test compound in each well.
A solution of HLM at 2 mg/mL in 100 mM K2HPO4/KH2PO4 pH 7.4 with 0.0225 mg/mL Alamethicin from Trichoderma viride (Sigma-Aldrich cat. A4665-10MG) was incubated on ice for 15 min. 5 μL of this solution was added to individual wells following 15 min incubation at room temperature; and supplemented with 5 μL NADPH Regenerating Solution of cofactors (Corning Gentest UGT Reaction Mix solutions A and B, cat. 451200 and 451220) containing 100 mM K2HPO4/KH2PO4 pH 7.4, 2.6 mM NADP^+, 6.6 mM glucose-6-phosphate, 6.6 mM MgCl2, 0.8 U/mL glucose-6-phosphate dehydrogenase, 0.1 mM sodium citrate, and 6.8 mM uridine diphosphate-glucuronic acid. The final concentration of analyte compounds at the beginning of the reactions was 1 μM. The reactions were incubated at 37 °C, and time points of 0, 5, 15, 30, 40, 50, 60, and 70 min were collected for further analysis. Background data were collected using reactions without analyte compounds.
Upon collection of the reaction time points, samples were quenched at the set time points with 30 μL of a solution of 72% acetonitrile, 8% methanol, 0.1% formic acid, 19.9% water, and labetalol as an internal standard (IS) at a concentration of 650 nM. Reaction plates were span in a centrifuge at a speed of 4000 rcf for 30 min and 4 °C, following a dilution of the 10 μL quenched reaction into 40 μL de-ionized water, yielding assay plates.
Samples were analyzed by a solid-phase extraction coupled with a quadrupole time-of-flight mass spectrometer, using an Agilent QToF 6530 RapidFire 360 system with C4 type A solid state cartridges. Analysis was performed in either positive or negative ionization modes. Mobile phases contained 0.1% formic acid in water for loading analytes onto solid state extraction cartridges, and 0.1% formic acid in acetonitrile for elution into the mass spectrometer in positive ionization mode, or 0.1% acetic acid in water for loading and 0.1% acetic acid in acetonitrile for extraction in negative ionization mode. Peak-area ratios of integrated counts for individual compounds to IS were plotted as a semi-logarithmic chart of log versus time. Initial, linear portion of decay was fitted to a linear regression equation to derive the half-time of a compound decay.
Pharmacological parameters for an analyte compound metabolism were calculated using the equations described in Table S2.
Table S2. Pharmacological parameters for an analyte compound metabolism were
calculated using the following equations:
Intrinsic Clearance (in Cl = ln 2
int, in vitro T1/2 ∗ Conc
Intrinsic Clearance Cl = Clint, in vitro ∗ Liver Mass ∗ Yield
Predicted Hepatic Cl = Clint ∗ QH
QH (Hepatic Blood Flow) = 1.3 L/hr/kg

[4] = Human immunodeficiency virus 1, IIIB, MT4, protects 50% of MT-4 cells against HIV-1-induced cell killing
[5] = preliminary biological data, in words
[6] = fold change: ratio of potency against HXB2 K103N and parental HXB2
[7] = supplement CSV, fold change vs HXB2
[8] = fold change: ratio of potency against HXB2 Y181C and parental HXB2
[9] = HCl, pH 1.2, read-out: solubility HCl
[10] = phosphate-buffered saline, pH 7.4, read-out: solubility PBS
[11] = apparent permeability coefficient, A to B, pH 7.4

Compound | EC50 (HIV-1 (IIIB strain); [4]) | CC50 at 120 h (in vitro) | EC50 (HIV-1 HXB2) | EC50 (HIV-1 HXB2 K103N variant) | K103N (FC) (HIV-1 HXB2 K103N variant; [6]) | K103N (FC) (HIV-1 HXB2 K103N variant; [7]) | EC50 (HIV-1 HXB2 Y181C variant) | Y181C (FC) (HIV-1 HXB2 Y181C variant; [8]) | Y181C (FC) (HIV-1 HXB2 Y181C variant; [7]) | solubility [1, 9] | solubility [1, 10] | HCl sol [1] | PBS sol [1] | Papp A→B at 120 min ([2]; supplement CSV) | Papp A→B at 120 min [2, 11] | CLint scaled at 1.167 h, 1 µM [3] | other results
Cc1cc(CO)cc(C)c1-n1c(=O)[nH]c2cnc(Nc3ccc(C#N)cc3)nc21 [Compound 32, 4-({9-[4-(Hydroxymethyl)-2,6-dimethylphenyl]-8-oxo-8,9-dihydro-7H-purin-2-yl}amino)benzonitrile] | 174 nM | 39700 nM |  |  |  |  |  |  |  |  |  |  |  |  |  |  | 
Cc1cc(Br)cc(C)c1N1CC(=O)Nc2cnc(Nc3ccc(C#N)cc3)nc21 [Compound 14, 4-{[8-(4-Bromo-2,6-dimethylphenyl)-6-oxo-5,6,7,8-tetrahydropteridin-2-yl]amino}benzonitrile] |  |  |  |  |  |  |  |  |  |  |  |  |  |  |  |  | activity against the WT virus (HIV-1 (IIIB strain); [5]): low nanomolar activity; potency against K103N mutated strain (HIV-1 HXB2 K103N variant; [5]): high potency; potency against Y181C mutated strain (HIV-1 HXB2 Y181C variant; [5]): high potency; aqueous solubility ([1]; preliminary data, in words): significantly improved
Cc1cc(CO)cc(C)c1N1CC(=O)Nc2cnc(Nc3ccc(C#N)cc3)nc21 [Compound 28, 4-({8-[4-(hydroxymethyl)-2,6-dimethylphenyl]-6-oxo-5,6,7,8-tetrahydropteridin-2-yl}amino)benzonitrile] | 78.9 nM | 41600 nM |  |  |  |  |  |  |  |  |  |  |  |  |  |  | 
Cc1cc(/C=C/C#N)cc(C)c1-n1c(=O)[nH]c2cnc(Nc3ccc(C#N)cc3)nc21 [Compound 2, 4-[(9-{4-[(1E)-2-Cyanoeth-1-en-1-yl]-2,6-dimethylphenyl}-8-oxo-8,9-dihydro-7H-purin-2-yl)amino]benzonitrile] | 2.5 nM | 23300 nM | 2.2 nM | 4.5 nM | 2.0 | 2.0 | 10.6 nM | 4.8 | 4.8 | 61.2 µM (≈ 24.9 µg/mL) | 10.4 µM (≈ 4.24 µg/mL) | 61.2 µM | 10.4 µM | 5.6 ×10⁻⁶ cm/s | 5.6 ×10⁻⁶ cm/s | 16.7 mL/min/kg | 
Cc1cc(CO)cc(C)c1N1CCC(=O)Nc2cnc(Nc3ccc(C#N)cc3)nc21 [Compound 39, 4-({9-[4-(hydroxymethyl)-2,6-dimethylphenyl]-6-oxo-5H,6H,7H,8H,9H-pyrimido[4,5-b][1,4]diazepin-2-yl}amino)benzonitrile] | 198 nM | 15900 nM |  |  |  |  |  |  |  |  |  |  |  |  |  |  | 
Cc1cc(C#N)cc(C)c1-n1c(=O)[nH]c2cnc(Nc3ccc(C#N)cc3)nc21 [Compound 1, 4-{2-[(4-Cyanophenyl)amino]-8-oxo-8,9-dihydro-7H-purin-9-yl}-3,5-dimethylbenzonitrile] | 62.3 nM | 43700 nM | 73.7 nM | 230 nM | 3.1 | 3.1 | 241 nM | 3.3 | 3.3 | 73.2 µM (≈ 27.9 µg/mL) | 6.6 µM (≈ 2.52 µg/mL) | 73.2 µM | 6.6 µM | 4.9 ×10⁻⁶ cm/s | 4.9 ×10⁻⁶ cm/s | 8.83 mL/min/kg | 
Cc1cc(/C=C/C#N)cc(C)c1N1CCC(=O)Nc2cnc(Nc3ccc(C#N)cc3)nc21 [Compound 6, 4-[(9-{4-[(1E)-2-Cyanoeth-1-en-1-yl]-2,6-dimethylphenyl}-6-oxo-5H,6H,7H,8H,9H-pyrimido[4,5-b][1,4]diazepin-2-yl)amino]benzonitrile] | 2.6 to 3 nM | 25800 nM | 2.8 nM | 4.8 nM | 1.7 | 1.7 | 18.3 nM | 6.5 | 6.5 | 63.3 µM (≈ 27.6 µg/mL) | 2.3 µM (≈ 1 µg/mL) | 63.3 µM | 2.3 µM | 3.1 ×10⁻⁶ cm/s | 3.1 ×10⁻⁶ cm/s | 12 mL/min/kg | EC50 (HIV-1 (IIIB strain); protects 50% of MT-4 cells against HIV-1-induced cell killing): 3 nM
Cc1cc(C=O)cc(C)c1N1CCC(=O)Nc2cnc(Nc3ccc(C#N)cc3)nc21 [Compound 42, 4-{[9-(4-Formyl-2,6-dimethylphenyl)-6-oxo-5H,6H,7H,8H,9H-pyrimido[4,5-b][1,4]diazepin-2-yl]amino}benzonitrile] | 94.3 nM | 5000 nM |  |  |  |  |  |  |  |  |  |  |  |  |  |  | 
Cc1cc(C=O)cc(C)c1N1CC(=O)Nc2cnc(Nc3ccc(C#N)cc3)nc21 [Compound 41, 4-{[8-(4-Formyl-2,6-dimethylphenyl)-6-oxo-5,6,7,8-tetrahydropteridin-2-yl]amino}benzonitrile] | 76.7 nM | 14200 nM |  |  |  |  |  |  |  |  |  |  |  |  |  |  | 
Cc1cc(C=O)cc(C)c1-n1c(=O)[nH]c2cnc(Nc3ccc(C#N)cc3)nc21 [Compound 40, 4-{[9-(4-Formyl-2,6-dimethylphenyl)-8-oxo-8,9-dihydro-7H-purin-2-yl]amino}benzonitrile] | 209 nM |  |  |  |  |  |  |  |  |  |  |  |  |  |  |  | CC50 at 5 days (in vitro): > 50000 nM
